Source: US6800651B2 (Eli Lilly and Company, priority 2000, dated 2004)
Like-named read-outs stand apart in the source and are kept apart here. Marks after values point to notes of the source that are not given here.

Legend:
[1] = test system: Harlan Sprague-Dawley rats; assay: Animal model of dural protein extravasation (trigeminal ganglion stimulation); format: in vivo; details: rat, ratio stimulated/unstimulated side of dura
Method: Harlan Sprague-Dawley rats (250-350 g) were anesthetized with sodium pentobarbital intraperitoneally (65 mg/kg) and placed in a stereotaxic frame (David Kopf Instruments) with the incisor bar set at −3.5 mm. Following a midline sagital scalp incision, two pairs of bilateral holes were drilled through the skull (6 mm posterially, 2.0 and 4.0 mm laterally, all coordinates referenced to bregma). Pairs of stainless steel stimulating electrodes, insulated except at the tips (Rhodes Medical Systems, Inc.), were lowered through the holes in both hemispheres to a depth of 9 mm. The femoral vein was exposed and a dose of the test compound was injected intravenously (i.v.) at a dosing volume of 1 ml/kg or, in the alternative, test compound was administered orally (p.o.) via gavage at a volume of 2 ml/kg. Approximately 8 minutes post i.v. injection, a 50 mg/kg dose of Evans Blue, a fluorescent dye, was also injected intravenously. The Evans Blue complexed with proteins in the blood and functioned as a marker for protein extravasation. […] Fifteen minutes following stimulation, the animals were killed and exsanguinated with 40 mL of saline. The top of the skull was removed to facilitate the collection of the dural membranes. The membrane samples were removed from both hemispheres, rinsed with water, and spread flat on microscopic slides. […] A fluorescence microscope (Zeiss) equipped with a grating monochromator and a spectrophotometer was used to quantify the amount of Evans Blue dye in each sample. An excitation wavelength of approximately 535 nm was utilized and the emission intensity at 600 nm was determined. The microscope was equipped with a motorized stage and also interfaced with a personal computer. This facilitated the computer-controlled movement of the stage with fluorescence measurements at 25 points ([…]) on each dural sample. The mean and standard deviation of the measurements were determined by the computer. The extravasation induced by the electrical stimulation of the trigeminal ganglion was an ipsilateral effect (i.e. occurs only on the side of the dura in which the trigeminal ganglion was stimulated). This allows the other (unstimulated) half of the dura to be used as a control. The ratio of the amount of extravasation in the dura from the stimulated side, over the amount of extravasation in the unstimulated side, was calculated.

[2] = test system: Male Sprague-Dawley rats; assay: Fear potentiated startle paradigm; format: in vivo; details: rat
Method: Male Sprague-Dawley rats weighing 325-400 g were purchased from Harlan Sprague-Dawley, Inc. (Cumberland, Ind.) and given a one week acclimation period before testing. Rats were individually housed with food and water ad libitum in an animal room on a 12-hour light/dark cycle with lights on between 6:00 A.M. and 6:00 P.M. […] Control rats were given the respective vehicle. The fear potentiated startle paradigm is conducted over three consecutive days. All three days begin with a 5-minute adaptation period before the trial starts. On day one (baseline startle) after the adaptation period, the animal receives 30 trials of 120 dB auditory noise. The mean startle amplitude (Vmax) is used to assign animals to groups with similar means before conditioning begins. Day two consists of conditioning the animals. Each animal receives 0.5 mA of shock for 500 msec preceded by a 5 second presentation of light which remains on for the duration of the shock. Ten presentations of the light and shock are administered. Day three is the testing trial where drug administration occurs prior to testing. Twenty-four hours after conditioning, startle testing sessions are conducted. Ten trials of acoustic startle (120 dB), non-light paired, are presented at the beginning of the session. This is followed by 20 random trials of the noise alone and 20 random trials of noise preceded by light. […] Data is presented as the difference between light+noise and noise-alone. Differences in startle response amplitudes were analyzed by JMP statistical software using a One-way Anova (analysis of variance, t-test). Group differences were considered to be significant at p<0.05. In the experiment shown below the compound of Example 16 was given i.p. 30 minutes prior to testing.

[3] = target: T1, mGlu2 receptor (Homo sapiens, UniProt Q14416); assay: Potentiation of glutamate-induced increase in intracellular calcium with a mGluR2 expressing cell line (FLIPR); format: cell-based; set-up: expressed in transfected cells; host or cells: RGT cells (co-transfected with GLAST), stably transfected with Galpha15; details: read-out: % Maximal Response (mean ± SD, n=2)
T1 sequence (Q14416 19-872): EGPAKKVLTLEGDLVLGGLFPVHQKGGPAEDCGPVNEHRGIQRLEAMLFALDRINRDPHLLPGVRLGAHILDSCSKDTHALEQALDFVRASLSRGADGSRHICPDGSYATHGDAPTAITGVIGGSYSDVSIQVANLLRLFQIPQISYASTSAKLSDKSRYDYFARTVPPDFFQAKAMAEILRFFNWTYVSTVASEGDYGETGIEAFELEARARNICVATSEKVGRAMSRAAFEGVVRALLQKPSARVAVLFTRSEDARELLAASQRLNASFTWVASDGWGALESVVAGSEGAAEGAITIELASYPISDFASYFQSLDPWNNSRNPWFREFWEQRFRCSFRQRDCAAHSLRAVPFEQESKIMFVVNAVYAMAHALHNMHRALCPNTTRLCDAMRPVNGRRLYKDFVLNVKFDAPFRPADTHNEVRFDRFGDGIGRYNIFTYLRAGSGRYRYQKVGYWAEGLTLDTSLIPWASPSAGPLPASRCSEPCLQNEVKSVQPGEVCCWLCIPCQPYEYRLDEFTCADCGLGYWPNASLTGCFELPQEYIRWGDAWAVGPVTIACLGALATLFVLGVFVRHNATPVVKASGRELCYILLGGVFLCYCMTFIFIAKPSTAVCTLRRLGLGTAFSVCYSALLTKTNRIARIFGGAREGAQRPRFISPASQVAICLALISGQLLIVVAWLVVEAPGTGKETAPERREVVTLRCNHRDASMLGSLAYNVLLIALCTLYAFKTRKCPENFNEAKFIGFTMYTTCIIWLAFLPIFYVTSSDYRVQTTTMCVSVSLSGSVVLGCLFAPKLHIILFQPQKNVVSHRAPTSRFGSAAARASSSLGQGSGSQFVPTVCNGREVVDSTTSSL
Method: Potentiation of Glutamate-Induced Increase in Intracellular Calcium with a mGluR2 Expressing Cell Line.
Cell lines expressing human mGlu2 receptors were derived as previously described (Desai, Burnett, Mayne, Schoepp, Mol. Pharmacol. 48, 648-657, 1995) and cultured in DMEM with 5% dialyzed fetal bovine serum, 1 mM glutamine, 1 mM sodium pyruvate, 50 μg/ml Geneticin G418, and 0.2 mg/ml hygromycin B. Confluent cultures were passaged weekly. […] The RGT cell line expressing the mGluR2 receptors was stably transfected with the promiscuous G-protein, Galpha15 to change the signaling pathway to the mGlu2 receptor to one that could be easily measured through release of intracellular calcium. Thus, intracellular calcium levels were monitored before and after the addition of drugs on a Fluorometric Imaging Plate Reader (i.e. FLIPR, Molecular Devices). The following buffer was used throughout as an assay buffer: 10 mM KCl, 138 mM NaCl, 5 mM Ca Cl2, 1 mM MgCl2, 4 mM NaH2PO4, 10 mM Glucose, 10 mM HEPES, pH 7.4. Cells that had been plated 48 h prior at a density of 30-40,000 cells per well in a 96-well plate were loaded with a calcium-sensitive dye for 90 min at 25° C. Fluo-3 (2 mM in DMSO, Molecular Probes) were mixed with a equal volume of 10% pluronic acid in DMSO, and diluted to 8 μM into the buffer described above containing 10% fetal bovine serum to make the loading buffer. Following loading of the cells, the loading buffer was removed and replaced with assay buffer prior to drug addition and monitoring on the FLIPR.

[4] = target: T1, mGlu2 receptor; assay: [3H]-2S-2-Amino-2-(1S,2S-2-carboxycyclopropan-1-yl)-3-(xanth-9-yl) propionic acid receptor binding (displacement), membranes of mGlu2 receptor expressing RGT cells; set-up: expressed in transfected cells; host or cells: RGT cells (co-transfected with the rat glutamate/aspartate transporter GLAST); washed membranes; details: displacement of 1 nM [3H]-2S-2-amino-2-(1S,2S-2-carboxycyclopropan-1-yl)-3-(xanth-9-yl)propionic acid; homogenates of mGlu2 receptor expressing cell line
Method: Membranes from mGlu2 receptor expressing RGT cells were prepared by harvesting adherent cells from confluent T-150 flasks with a cell scraper. Cells and media were then placed in 50 ml conical tubes and centrifuged at 4° C. at 1000 g for 5 minutes. The supernatant was removed and the pellet was frozen at −10° C. until use. Washed cell membranes were prepared by adding 20 ml of 10 mM potassium phosphate buffer pH 7.6 @ 5° C.+100 mM potassium bromide and homogenizing with an Ultra-Turrax tissuemizer for 15 seconds at 90% output. The homogenate was centrifuged at 48,000×g for 10 minutes at 5° C. This last step was repeated two times, and the final pellet was resuspended in 10 ml of the same buffer and reserved on ice until initiating the binding assay.
The incubation was initiated by the addition of the membrane suspension, (about 15 μg membrane protein), and allowed to continue on ice for 30 min. Incubation was terminated by rapid filtration with a Brandel cell harvester through glass fiber Whatman GF/B filters pre-wet with the same potassium phosphate buffer assay buffer (at 4° C.). The filters were washed five times with 1 ml of buffer. Filter sections were transferred to minivials and 5 ml of Fisher Scientific ScintiSafe liquid scintillation cocktail was added to each vial. Vials were allowed to set for several hours prior to counting on a Beckman LS6000 liquid scintillation counter.

`COc1ccccc1Oc1ccc(N(Cc2cccnc2)S(=O)(=O)CC(F)(F)F)cc1` [Example 16, N-(4-(2-Methoxyphenoxy)phenyl)-N-(2,2,2-trifluoroethylsulfonyl)pyrid-3-ylmethylamine] was tested, and the “Extrav. Ratio ± s.e.m.” value ([1]; 10 pg/kg i.v.) was 1.87 ± 0.07, the “Extrav. Ratio ± s.e.m.” value ([1]; 100 pg/kg i.v.) was 1.37 ± 0.07 and the “Extrav. Ratio ± s.e.m.” value ([1]; 1 ng/kg i.v.) was 1.04 ± 0.05. For the same molecule, the “Extrav. Ratio ± s.e.m.” value ([1]; 100 ng/kg i.v.) was 0.99 ± 0.004, the “Difference in Startle Amplitude (Vmax) + S.E.” value (“Difference in Startle Amplitude” below) ([2]; Exp. 1, 0.03 mg/kg i.p. 30 minutes prior to testing, light+noise minus noise-alone) was 108 + 41 and the “Difference in Startle Amplitude” value ([2]; Exp. 1, 0.3 mg/kg i.p. 30 minutes prior to testing) was 154 + 38. The “Difference in Startle Amplitude” value ([2]; Exp. 1, 3.0 mg/kg i.p. 30 minutes prior to testing) was 21 + 24*, the “Difference in Startle Amplitude” value ([2]; Exp. 2, 1.0 mg/kg i.p. 30 minutes prior to testing) was 120 + 87* and the “Difference in Startle Amplitude” value ([2]; Exp. 2, 3.0 mg/kg i.p. 30 minutes prior to testing) was 148 + 86*. The “Difference in Startle Amplitude” value ([2]; Exp. 2, 10.0 mg/kg i.p. 30 minutes prior to testing) was 105 + 91*, the Emax ([3]; 8 nM Glutamate + 1 μM compound) was 2.8 ± 1.9% and the Emax ([3]; 24 nM Glutamate + 1 μM compound) was 0.1 ± 0.8%. For the same molecule, the Emax ([3]; 80 nM Glutamate + 1 μM compound) was 0.3 ± 1.1%, the Emax ([3]; 240 nM Glutamate + 1 μM compound) was 17.4 ± 2.8% and the Emax ([3]; 800 nM Glutamate + 1 μM compound) was 62.9 ± 0.1%. The Emax at 1 µM ([3]; 1 μM compound, Buffer (no agonist), glutamate series 24 μM to 8 nM) was 1.6 ± 1%, the Emax ([3]; 2.4 μM Glutamate + 1 μM compound) was 92.5 ± 4.4% and the Emax ([3]; 8 μM Glutamate + 1 μM compound) was 98.4 ± 6.4%. It also gave an Emax ([3]; 24 μM Glutamate + 1 μM compound) of 95.4 ± 2.4% and a Ki [4] greater than 100 µM.
